For four molecules, IC50 results are on record in ChEMBL document CHEMBL1135856, “Identification of unique VLA-4 antagonists from a combinatorial library” (Bioorg Med Chem Lett, 2002).

The target of the experiment is Integrin alpha-4/beta-1 (Homo sapiens, UniProt P05556+P13612). Kind of experiment: Inhibition of [125I]VCAM-Ig binding to Alpha-4 beta-1 (VLA-4) of Jurkat cells. It is filed as cell-based.
Integrin alpha-4/beta-1, sequence (P05556 whole entry): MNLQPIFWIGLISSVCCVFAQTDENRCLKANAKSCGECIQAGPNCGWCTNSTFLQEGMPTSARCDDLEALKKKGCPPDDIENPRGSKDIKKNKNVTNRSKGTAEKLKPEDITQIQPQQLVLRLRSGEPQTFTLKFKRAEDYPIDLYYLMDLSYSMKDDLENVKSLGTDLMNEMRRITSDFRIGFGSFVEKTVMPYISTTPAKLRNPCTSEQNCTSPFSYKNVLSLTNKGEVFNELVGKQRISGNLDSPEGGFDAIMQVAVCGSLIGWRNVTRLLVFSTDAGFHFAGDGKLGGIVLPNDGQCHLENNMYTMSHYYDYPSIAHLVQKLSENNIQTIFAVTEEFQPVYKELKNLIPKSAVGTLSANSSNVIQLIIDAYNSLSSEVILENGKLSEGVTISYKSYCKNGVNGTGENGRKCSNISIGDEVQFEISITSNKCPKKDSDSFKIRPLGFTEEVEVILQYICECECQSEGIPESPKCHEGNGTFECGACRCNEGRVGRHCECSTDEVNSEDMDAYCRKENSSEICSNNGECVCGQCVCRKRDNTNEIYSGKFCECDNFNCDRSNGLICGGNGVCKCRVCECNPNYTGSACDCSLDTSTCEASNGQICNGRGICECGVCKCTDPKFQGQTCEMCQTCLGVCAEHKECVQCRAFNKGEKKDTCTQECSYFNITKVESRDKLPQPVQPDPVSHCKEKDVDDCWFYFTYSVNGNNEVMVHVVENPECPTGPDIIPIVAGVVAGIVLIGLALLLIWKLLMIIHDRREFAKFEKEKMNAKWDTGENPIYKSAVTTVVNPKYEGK
Integrin alpha-4/beta-1, sequence (P13612 whole entry): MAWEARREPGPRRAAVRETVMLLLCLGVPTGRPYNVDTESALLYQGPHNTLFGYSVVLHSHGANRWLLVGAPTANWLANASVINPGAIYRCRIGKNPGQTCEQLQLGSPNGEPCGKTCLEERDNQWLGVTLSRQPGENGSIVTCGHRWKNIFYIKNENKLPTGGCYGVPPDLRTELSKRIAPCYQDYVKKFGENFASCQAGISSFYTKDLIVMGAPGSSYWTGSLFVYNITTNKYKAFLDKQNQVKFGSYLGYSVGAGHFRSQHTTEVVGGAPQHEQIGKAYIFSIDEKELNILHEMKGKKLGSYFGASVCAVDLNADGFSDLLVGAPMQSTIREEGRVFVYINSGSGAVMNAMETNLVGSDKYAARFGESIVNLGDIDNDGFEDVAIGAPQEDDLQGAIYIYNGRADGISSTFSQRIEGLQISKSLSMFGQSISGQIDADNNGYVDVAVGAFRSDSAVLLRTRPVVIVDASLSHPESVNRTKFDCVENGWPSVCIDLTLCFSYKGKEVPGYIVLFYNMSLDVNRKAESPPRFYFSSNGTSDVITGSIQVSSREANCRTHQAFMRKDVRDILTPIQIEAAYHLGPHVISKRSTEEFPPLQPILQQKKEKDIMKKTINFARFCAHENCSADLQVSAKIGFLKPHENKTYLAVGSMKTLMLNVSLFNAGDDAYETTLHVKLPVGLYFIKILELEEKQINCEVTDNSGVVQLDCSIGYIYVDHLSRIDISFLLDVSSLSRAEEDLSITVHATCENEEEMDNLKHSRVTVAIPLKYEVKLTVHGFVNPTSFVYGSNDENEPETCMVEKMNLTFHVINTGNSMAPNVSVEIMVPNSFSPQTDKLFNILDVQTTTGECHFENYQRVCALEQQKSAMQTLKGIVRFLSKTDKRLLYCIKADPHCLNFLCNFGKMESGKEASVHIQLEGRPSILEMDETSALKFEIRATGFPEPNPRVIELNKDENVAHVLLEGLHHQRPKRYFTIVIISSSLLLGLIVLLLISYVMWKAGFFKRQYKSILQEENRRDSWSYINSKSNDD

Molecule `Cc1ccccc1NC(=O)Nc1ccc(CC(=O)N(CC(=O)NC(CC(=O)O)c2ccccc2)C2CCCCC2)cc1` (centres undefined) showed an IC50 of 3.2 nM.

For `O=C(N[C@@H](Cc1ccc(-c2ccccc2)cc1)C(=O)O)c1ccc(CNS(=O)(=O)c2cc(Cl)cc(Cl)c2)cc1`, the IC50 amounted to 3.6 nM. For `Cc1ccccc1NC(=O)Nc1ccc(CC(=O)C2CCC(C(=O)N[C@@H](Cc3ccccc3)C(=O)O)(c3ccccc3)CC2)cc1` (some centres undefined) the value was 8.1 nM; for `CCCC[C@H](NC(=O)[C@@H]1Cc2ccccc2CN1S(=O)(=O)c1ccc(OC)c(OC)c1)C(=O)O`, 0.53 nM.
